Data published in paper PMC5218887 (Neurochemistry International, 2017).
“Also recorded” adds a separate entry of the source. Non-standard residues stand in square brackets, D forms with d. Primed or numbered codes have the meaning given here. No end group written: not given here. pS′ = not defined here

Assays:
human GPR139 [1] = target: T1, human GPR139 (Homo sapiens, UniProt Q6DWJ6); assay: Fluo-4 Ca2+-assay, antagonist testing against EC80; assay type: cell-based; conditions: against EC80 (800 nM) of cmp1a; data not shown
T1 sequence (Q6DWJ6 1-353): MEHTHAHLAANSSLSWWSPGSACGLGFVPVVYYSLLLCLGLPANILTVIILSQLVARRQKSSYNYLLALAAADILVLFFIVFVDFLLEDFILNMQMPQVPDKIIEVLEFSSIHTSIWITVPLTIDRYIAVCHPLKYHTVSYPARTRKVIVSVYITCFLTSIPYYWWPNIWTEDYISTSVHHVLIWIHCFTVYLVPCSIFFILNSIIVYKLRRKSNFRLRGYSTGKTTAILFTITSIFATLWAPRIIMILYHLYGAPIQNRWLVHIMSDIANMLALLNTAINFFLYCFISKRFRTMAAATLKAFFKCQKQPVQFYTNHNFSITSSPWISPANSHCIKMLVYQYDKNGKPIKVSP

human GPR139 [2] = target: T1, human GPR139; assay: Fluo-4 Ca2+-assay, agonist testing on CHO-GPR139; assay type: cell-based; conditions: for agonist activity on GPR139: CHO-GPR139, result in words; for relative Emax ± SEM: compared to Emax of cmp1a
GPR139 [3] = conditions: rats; ref Liu et al., 2015; cited from earlier work
GPR139 [4] = conditions: read-out: EC50 on GPR139; ref Isberg et al., 2014; cited from earlier work
[5] = target: T2, human muscarinic acetylcholine receptor M1 (Homo sapiens, UniProt P11229); assay: Fluo-4 Ca2+-assay on CHO-M1; assay type: cell-based; conditions: CHO-M1, specificity test; data not shown
T2 sequence (P11229 1-460): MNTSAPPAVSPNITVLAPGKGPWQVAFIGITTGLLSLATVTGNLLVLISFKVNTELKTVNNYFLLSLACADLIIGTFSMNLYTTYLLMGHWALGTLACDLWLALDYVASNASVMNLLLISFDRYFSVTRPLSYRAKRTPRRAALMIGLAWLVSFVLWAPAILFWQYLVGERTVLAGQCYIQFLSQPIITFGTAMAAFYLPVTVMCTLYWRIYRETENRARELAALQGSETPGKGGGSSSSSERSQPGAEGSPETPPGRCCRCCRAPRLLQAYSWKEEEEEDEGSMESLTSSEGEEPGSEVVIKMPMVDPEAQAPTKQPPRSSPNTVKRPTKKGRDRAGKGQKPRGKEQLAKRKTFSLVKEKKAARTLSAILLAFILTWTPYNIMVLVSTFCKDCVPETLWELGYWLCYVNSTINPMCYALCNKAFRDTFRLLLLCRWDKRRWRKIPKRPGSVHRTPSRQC

MC4R = MC4R (Homo sapiens, UniProt P32245); assay: cAMP accumulation assay; assay type: cell-based; conditions: tested in the highest concentration; normalized to Emax of α-MSH
MC4R, sequence (P32245 whole entry, species assumed): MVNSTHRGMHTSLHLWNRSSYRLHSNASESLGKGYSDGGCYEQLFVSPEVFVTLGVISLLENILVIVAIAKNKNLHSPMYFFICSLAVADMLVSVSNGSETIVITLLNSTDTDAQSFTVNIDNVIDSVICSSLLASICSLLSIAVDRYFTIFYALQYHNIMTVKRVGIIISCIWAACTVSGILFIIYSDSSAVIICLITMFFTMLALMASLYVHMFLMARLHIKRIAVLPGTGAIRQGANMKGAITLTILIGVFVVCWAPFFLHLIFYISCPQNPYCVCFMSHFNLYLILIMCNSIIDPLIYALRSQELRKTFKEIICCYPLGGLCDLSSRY

| Molecule | antagonist activity on GPR139 (human GPR139 [1]) | agonist activity on GPR139 (human GPR139 [2]) | further results |
| --- | --- | --- | --- |
| 26RFa | No agonist or antagonist activity | No agonist or antagonist activity | – |
| N=C(N)NCCC[C@H](NC(=O)[C@H](Cc1ccccc1)NC(=O)[C@@H](N)Cc1c[nH]cn1)C(=O)N[C@@H](Cc1c[nH]c2ccccc12)C(=O)O [HFRW] | – | – | Emax (human GPR139 [2]; read-out: relative Emax ± SEM): 64 ± 6% |
| C[C@H](NC(=O)CNC(=O)c1cccc(Cl)c1)c1ccccc1 [JNJ-63533054] | – | – | spontaneous locomotion activity (GPR139 [3]): decreased spontaneous locomotion activity |
| N[C@@H](Cc1ccccc1)C(=O)O [L-Phe, L-phenylalanine] | – | – | EC50 (GPR139 [4]): 320 µM |
| N[C@@H](Cc1c[nH]c2ccccc12)C(=O)O [L-Trp, L-tryptophan] | – | – | EC50 (GPR139 [4]): 220 µM |
| CSCC[C@H](NC(=O)[C@H](CO)NC(=O)[C@H](Cc1ccc(O)cc1)NC(=O)[C@H](CO)NC(C)=O)C(=O)N[C@@H](CCC(=O)O)C(=O)N[C@@H](Cc1c[nH]cn1)C(=O)N[C@@H](Cc1ccccc1)C(=O)N[C@@H](CCCNC(=N)N)C(=O)N[C@@H](Cc1c[nH]c2ccccc12)C(=O)NCC(N)=O [cap-α-MSH1-10] | – | – | Emax at 14 µM (human GPR139 [2]; read-out: relative Emax ± SEM): 31 ± 4% |
| COc1cc(OC)cc(C(=O)NNC(=O)Nc2cccc3ccccc23)c1 [compound 1a, 2-(3,5-dimethoxybenzoyl)-N-(naphthalen-1-yl)hydrazine-1-carboxamide] | – | – | EC80 on GPR139 (human GPR139 [2]; concentration used for antagonist testing): 0.8 µM |
| CSCC[C@H](NC(=O)[C@H](CCCNC(=N)N)NC(=O)[C@H](Cc1ccc(O)cc1)NC(=O)[C@@H]1CCCN1C(=O)CNC(=O)[C@H](CCC(=O)O)NC(=O)[C@H](CC(=O)O)NC(=O)[C@H](CCCCN)NC(=O)[C@H](CCCCN)NC(=O)[C@H](CCC(=O)O)NC(=O)[C@H](C)N)C(=O)N[C@@H](CCC(=O)O)C(=O)N[C@@H](Cc1c[nH]cn1)C(=O)N[C@@H](Cc1ccccc1)C(=O)N[C@@H](CCCNC(=N)N)C(=O)N[C@@H](Cc1c[nH]c2ccccc12)C(=O)NCC(=O)N[C@@H](CO)C(=O)N1CCC[C@H]1C(=O)N1CCC[C@H]1C(=O)N[C@@H](CCCCN)C(=O)N[C@@H](CC(=O)O)C(=O)O [β-MSH] | – | showed agonist activity | fold more potent on GPR139 than L-Trp and L-Phe (human GPR139 [2]; compared with L-Trp (EC50 = 220 μM) and L-Phe (EC50 = 320 μM)): 20–120 fold; Emax (human GPR139 [2]; read-out: relative Emax ± SEM): 101 ± 11%; activity on the muscarinic acetylcholine M1 receptor [5]: none of these peptides showed any activity |
| Ac-SYSMEHFRW-NH2 [cap-α-MSH1-9] | – | – | Emax at 61 µM (human GPR139 [2]; read-out: relative Emax ± SEM): 53 ± 9%; response of α-MSH on MC4R (MC4R): 50% |
| MEHFRWG [α-MSH4-10] | – | – | relative Emax ± SEM (human GPR139 [2]; at 101 μM (highest concentration tested, no plateau)): 13 ± 2 (at 101 μM) % |
| SY[pSer]SMEHFRWGKPV-NH2 (N-terminal SY[pSer]; C-terminal amide) [α-MSHP-Ser] | neither of the two peptides showed any agonist or antagonist activity | neither of the two peptides showed any agonist or antagonist activity | – |
| SY[pSer]SMEHFRWGKPVGKK (SY[pS′]SMEHFRWGKPVGKK) [ACTH1-16,P-Ser] | neither of the two peptides showed any agonist or antagonist activity | neither of the two peptides showed any agonist or antagonist activity | – |
| [Arg^8]-vasopressin | No agonist or antagonist activity | No agonist or antagonist activity | – |
| cap-α-MSH4-10: α-MSH4-10 (MEHFRWG), N-terminal acetylated and C-terminal amidated | – | – | relative Emax ± SEM (human GPR139 [2]; at 16 μM (highest concentration tested, no plateau)): 21 ± 8 (at 16 μM) % |
| melanin-concentrating hormone [MCH] | No agonist or antagonist activity | No agonist or antagonist activity | – |
| oxytocin | No agonist or antagonist activity | No agonist or antagonist activity | – |
| thyrotropin releasing hormone [TRH] | No agonist or antagonist activity | No agonist or antagonist activity | – |
| γ1-melanocyte stimulating hormone [γ1-MSH] | No agonist or antagonist activity | No agonist or antagonist activity; also recorded: did not show any activity | – |
